Assay results from ChEMBL document CHEMBL1138145, “Enhanced FTase activity achieved via piperazine interaction with catalytic zinc” (Bioorg Med Chem Lett, 2006).
pIC50: −log10 of the molar value.

Experiments:
[1] = target: T1, Protein farnesyltransferase (Homo sapiens, UniProt P49354+P49356); assay: Inhibition of farnesyltransferase activity; format: protein-complex assay
[2] = target: T1, Protein farnesyltransferase; assay: Inhibition of farnesyltransferase activity at 0.2 uM; format: protein-complex assay
[3] = target: T1, Protein farnesyltransferase; assay: Inhibition of farnesyltransferase activity in COS7 cells transfected with Ras gene in soft agar proliferation; format: functional, cell-based, Chlorocebus aethiops, COS-7
[4] = AUC in rat at 10 mg/kg, po; format: ADME, organism-based; parameters: dose 10 mg/kg, route oral; details: plasma

pIC50 [1] | inhibition [2] | pIC50 [3] | AUC [4] | Compound
7.12 |  |  |  | CS(=O)(=O)N1CCC([C@@H]2c3ccc(Cl)cc3C=C(N3CCNCC3)c3cccnc32)CC1
 | 29% |  |  | CS(=O)(=O)N1CCC([C@H]2c3ccc(Cl)cc3C(N3CCNCC3)=Cc3cccnc32)CC1
6.82 |  |  |  | CS(=O)(=O)N1CCC([C@H]2c3ccc(Cl)cc3C=C(N3CCNCC3)c3cccnc32)CC1
8.15 |  | 7.14 | 4 µM·h | CS(=O)(=O)N1CCC([C@@H]2c3ccc(Cl)cc3C(N3CCNCC3)=Cc3cccnc32)CC1
